Legend:
5-78 T-lymphoma = assay: Tumor cell survival (trypan blue), continuous exposure; type: cell-based, Rabbit
L1210 leukemia = assay: cells; type: cell-based, mice
[1] = test system: L-1210 leukemia cell suspensions; assay: Tumor cell survival (trypan blue), continuous exposure; type: cell-based, Mouse; settings: for Percent Tumor Cell Survival / % tumor cell survival: L-1210; for Percent Tumor Cell Survival: treated 24 hr
L-1210 leukemia cells = assay: Tumor cell survival after pulse treatment; type: cell-based, Mouse; settings: for Percent Tumor Cell Survival: viability 24 hr later
Procedure: All rabbit, marmoset and human lymphoid in vitro cell lines, murine L-1210 leukemia and primary human leukemias were treated at cell concentrations of 6-10×10^5 cells/ml. The tripeptide was added to the cell suspensions to yield final concentrations of 1 to 50 ug/ml. Cultures were treated at 37° C. for periods ranging between 15 min to 24 hr. Following treatment, aliquots were removed and centrifuged at 800 rpm for 9 min, at 5° C. Treatment media were gently aspirated and the lymphoid cells resuspended in fresh growth media and reincubated at 37° C. Culture media were changed daily by gently pelleting the cells and exchanging 60-70% of the spent supernatant with fresh media.
Survival of tumor cell layers or suspensions was ascertained using 0.5% trypan blue in 0.1M phosphate-buffered saline, pH 7.25. Cell layers were released from the Multidish-4 wells with 0.5 ml STV, diluted 2 to 10 fold with the vital strain; tumor cells in suspension cultures were directly mixed 1:1 with the trypan blue dye. Tumor cells were enumerated using a haemocytometer; all 10 fields were counted for every sample. Percent viable cells was determined by direct comparison of the numbers of cells excluding trypan blue in treated cultures to those in untreated or diluent-treated parallel cultures. There were no significant differences in the viability of cells treated with diluent when compared to untreated cells.
To delineate the minimum concentration and duration of the tripeptide compound exposure to induce cytolysis, MJY-alpha and B-16 melanoma cell layers and L-1210 leukemia cell suspensions were exposed to 0.5 to 50 ug of the tripeptide compound per ml of solvent for 0.25 to 4 hours. The tripeptide compound was then removed and the cells washed and reincubated in media growth. Tumor cell viability was determined 24 hrs after pulse tripeptide compound exposure. Cell survival of all three tumor cell lines was reduced by an exposure period of as short as 15 min (Table 4). The degree of cytolysis increased with extension of the treatment periods from 15 min to 4 hrs, although the decreases in cell survival were not proportional to the duration of the exposure. […] Comparison of the data in Tables 2 and 4 reveal that cells exposed to the tripeptide compound for one hour were irreversibly damaged when assayed a day later despite their apparent viability immediately after treatment.
The reversibility of the cancericidal activity of the tripeptide compounds on L-1210 leukemia, MJY-alpha mammary tumor and B-16 melanoma cells was also monitored in the nonhostile tissue culture environment. Cell suspensions of these tumor models were treated with tripeptide for 15 to 240 min, washed and either inoculated into mice or maintained as suspension (L-1210) or monolayer cultures (MJY-alpha and B-16). Reductions in tumor cells survival were negligible (0-6%) in all three tumor systems at initiation of in vitro cultures following treatment with 50 ug tripeptide/ml for as long as 4 hrs. However, significant decreases in cellular viabilities of L-1210 leukemia (FIG. 9), MJY-alpha mammary tumor (FIG. 10) and B-16 melanoma (FIG. 11) tumor cells were observed 24 hr following tripeptide exposure and for the next 6 days.

[2] = test system: B-type mouse mammary tumor virus particles in MJY-alpha cells; assay: Electron microscopy of thin sections; type: cell-based; settings: 25 ug/ml for 2 hours
Procedure: Thin sections MJY-alpha mammary tumor cells were prepared according to standard techniques for electronmicroscopy. The magnification was scaled where the bar was equal to one um. […] The tumor virus particles are shown in the insert and also throughout the lower two-thirds of the photograph as rope-like sections. […] It should be noted that numerous microvilli are present with budding particles also in evidence. […] After that treatment period, the layer of cells was washed and then reincubated for one (1) day prior to further processing for electronmicroscopy. Although there are some microvilli with budding particles present, the number of such particles and buds is reduced. […] The layer was then similarily washed and reincubated for a two (2) days prior to further processing for electronmicroscopy.

## CCOC(=O)[C@H](CCSC)NC(=O)[C@H](Cc1cccc(N(CCCl)CCCl)c1)NC(=O)[C@@H](N)Cc1ccc(F)cc1.Cl [PTT.119, 3-(p-fluorophenyl)-L-alanyl-3-[m-bis(2-chloroethyl)aminophenyl]-L-alanyl-L-methionine ethyl ester hydrochloride]
5-78 T-lymphoma; 5 ug/ml, 1 hr
  % tumor cell survival: 100%
5-78 T-lymphoma; 5 ug/ml, 4 hr
  % tumor cell survival: 88%
5-78 T-lymphoma; 5 ug/ml, 24 hr
  % tumor cell survival: 66%
5-78 T-lymphoma; 10 ug/ml, 1 hr
  % tumor cell survival: 89%
5-78 T-lymphoma; 10 ug/ml, 4 hr
  % tumor cell survival: 61%
5-78 T-lymphoma; 10 ug/ml, 24 hr
  % tumor cell survival: 49%
5-78 T-lymphoma; 25 ug/ml, 1 hr
  % tumor cell survival: 75%
5-78 T-lymphoma; 25 ug/ml, 4 hr
  % tumor cell survival: 32%
5-78 T-lymphoma; 25 ug/ml, 8 hr
  % tumor cell survival: 14%
5-78 T-lymphoma; 25 ug/ml, 24 hr
  % tumor cell survival: 6%
5-78 T-lymphoma; 50 ug/ml, 1 hr
  % tumor cell survival: 57%
5-78 T-lymphoma; 50 ug/ml, 4 hr
  % tumor cell survival: 4%
5-78 T-lymphoma; 50 ug/ml, 24 hr
  % tumor cell survival: 2%
L1210 leukemia
  T.C.D.100: 37.5
  elimination of viable population: completely eliminated the viable population
  surviving fraction at end of examination period: 15%
L1210 leukemia; 3.75 µM
  percentage of viable cells: 40-50%
L1210 leukemia; Mus musculus, L1210, 24 h, read-out: T.C.D.50
  IC50: 9 µM
[1]; 0.1 ug/ml
  Percent Tumor Cell Survival: 82%
[1]; 1 ug/ml, 1 hr exposure
  % tumor cell survival: 95%
[1]; 1 ug/ml, 8 hr
  % tumor cell survival: 100%
[1]; 1 ug/ml, 24 hr
  % tumor cell survival: 65%
[1]; 1 ug/ml
  Percent Tumor Cell Survival: 70%
[1]; 5 ug/ml, 1 hr
  % tumor cell survival: 100%
[1]; 5 ug/ml, 4 hr
  % tumor cell survival: 84%
[1]; 5 ug/ml, 24 hr
  % tumor cell survival: 57%
[1]; 5 ug/ml
  Percent Tumor Cell Survival: 62%
[1]; 10 ug/ml, 1 hr
  % tumor cell survival: 92%
[1]; 10 ug/ml, 4 hr
  % tumor cell survival: 75%
[1]; 10 ug/ml, 24 hr
  % tumor cell survival: 12%
[1]; 10 ug/ml
  Percent Tumor Cell Survival: 28%
[1]; 25 ug/ml, 1 hr
  % tumor cell survival: 50%
[1]; 25 ug/ml, 4 hr
  % tumor cell survival: 25%
[1]; 25 ug/ml, 8 hr
  % tumor cell survival: 15%
[1]; 25 ug/ml, 24 hr
  % tumor cell survival: 0%
[1]; 25 ug/ml
  Percent Tumor Cell Survival: 6%
[1]; continuous 24 hr exposure, all concentrations tested (0.1 to 50 ug/ml)
  decrease in leukemia cell survival: 18-94%
L-1210 leukemia cells; L-1210, 1 ug/ml, pulse 1 hr
  Percent Tumor Cell Survival: 83%
L-1210 leukemia cells; L-1210, 1 ug/ml, pulse 2 hr
  Percent Tumor Cell Survival: 78%
L-1210 leukemia cells; L-1210, 1 ug/ml, pulse 4 hr
  Percent Tumor Cell Survival: 45%
L-1210 leukemia cells; L-1210, 1 ug/ml, pulse .25 hr
  Percent Tumor Cell Survival: 80%
L-1210 leukemia cells; L-1210, 1 ug/ml, pulse .5 hr
  Percent Tumor Cell Survival: 87%
L-1210 leukemia cells; L-1210, 5 ug/ml, pulse 1 hr
  Percent Tumor Cell Survival: 61%
L-1210 leukemia cells; L-1210, 5 ug/ml, pulse 2 hr
  Percent Tumor Cell Survival: 57%
L-1210 leukemia cells; L-1210, 5 ug/ml, pulse 4 hr
  Percent Tumor Cell Survival: 35%
L-1210 leukemia cells; L-1210, 5 ug/ml, pulse .25 hr
  Percent Tumor Cell Survival: 72%
L-1210 leukemia cells; L-1210, 5 ug/ml, pulse .5 hr
  Percent Tumor Cell Survival: 60%
L-1210 leukemia cells; L-1210, 10 ug/ml, pulse 1 hr
  Percent Tumor Cell Survival: 27%
L-1210 leukemia cells; L-1210, 10 ug/ml, pulse 2 hr
  Percent Tumor Cell Survival: 31%
L-1210 leukemia cells; L-1210, 10 ug/ml, pulse 4 hr
  Percent Tumor Cell Survival: 37%
L-1210 leukemia cells; L-1210, 10 ug/ml, pulse .25 hr
  Percent Tumor Cell Survival: 53%
L-1210 leukemia cells; L-1210, 10 ug/ml, pulse .5 hr
  Percent Tumor Cell Survival: 40%
L-1210 leukemia cells; L-1210, 20 ug/ml, pulse 1 hr
  Percent Tumor Cell Survival: 0%
L-1210 leukemia cells; L-1210, 20 ug/ml, pulse .25 hr
  Percent Tumor Cell Survival: 0%
L-1210 leukemia cells; L-1210, 20 ug/ml, pulse .5 hr
  Percent Tumor Cell Survival: 0%
L-1210 leukemia cells; L-1210, 25 ug/ml, pulse 1 hr
  Percent Tumor Cell Survival: 0%
L-1210 leukemia cells; L-1210, 25 ug/ml, pulse 2 hr
  Percent Tumor Cell Survival: 0%
L-1210 leukemia cells; L-1210, 25 ug/ml, pulse 4 hr
  Percent Tumor Cell Survival: 0%
L-1210 leukemia cells; L-1210, 25 ug/ml, pulse .25 hr
  Percent Tumor Cell Survival: 20%
L-1210 leukemia cells; L-1210, 25 ug/ml, pulse .5 hr
  Percent Tumor Cell Survival: 7%
L-1210 leukemia cells; L-1210, 50 ug/ml for as long as 4 hrs (all three tumor systems)
  reductions in tumor cell survival at initiation of in vitro cultures: 0-6%
L-1210 leukemia cells; L-1210, .5 ug/ml, pulse 1 hr
  Percent Tumor Cell Survival: 83%
L-1210 leukemia cells; L-1210, .5 ug/ml, pulse 2 hr
  Percent Tumor Cell Survival: 94%
L-1210 leukemia cells; L-1210, .5 ug/ml, pulse 4 hr
  Percent Tumor Cell Survival: 68%
L-1210 leukemia cells; L-1210, .5 ug/ml, pulse .25 hr
  Percent Tumor Cell Survival: 95%
L-1210 leukemia cells; L-1210, .5 ug/ml, pulse .5 hr
  Percent Tumor Cell Survival: 90%
L-1210 leukemia cells; any given concentration, 30 min or 1 hr pulse, 5 days
  L-1210 cells destroyed compared to mammary tumor and melanoma cells: approximately 5 times
[2]; reincubated 1 day
  number of microvilli budding particles and buds: reduced
[2]; reincubated 2 days
  number of microvilli: reduced even farther

— US4740501A (priority 1985, dated 1988)
